Measured values: PubChem BioAssay (NCI)
Where “and” joins values, the source holds several entries; their conditions need not be identical. Identical values can stand only once.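 Step 1: Grow cells in 96-well plates. Step 2: Expose to compound for 48 hours at 5 concentrations. Step 3: Interpolate endpoints linearly; if unreached, use highest concentration. The concentration for 50% growth inhibition is given as GI50. At the TGI there is no net growth.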

Key:
Assay in all cases: growth of human tumour cells (NCI), 48 h
HOP-92 NSCLC = tested on: HOP-92 NSCLC
NCI/ADR-RES ovarian = tested on: NCI/ADR-RES ovarian
DU-145 prostate = tested on: DU-145 prostate
HS 578T breast = tested on: HS 578T breast
T-47D breast = tested on: T-47D breast
MDA-MB-435 = tested on: MDA-MB-435
NCI-H522 lung = tested on: NCI-H522 lung
MALME-3M melanoma = tested on: MALME-3M melanoma
PC-3 prostate = tested on: PC-3 prostate
MCF7 breast = tested on: MCF7 breast

Compound `O=C(Nc1ccc(Oc2ccc(NC(=O)Nc3ccccc3Cl)cc2)cc1)Nc1ccccc1Cl` has a GI50 (HOP-92 NSCLC) of 1.34 µM, a TGI (HOP-92 NSCLC) of 9.53 µM and a GI50 (NCI/ADR-RES ovarian) of 10.8 µM. For the same compound, the TGI (NCI/ADR-RES ovarian) was over 63.8 µM, the GI50 (DU-145 prostate) was 4.53 µM and the TGI (DU-145 prostate) was over 100 µM. It also gave a GI50 (HS 578T breast) of 17.8 µM, a TGI (HS 578T breast) of over 100 µM and a GI50 (T-47D breast) of 6.98 µM. For the same compound, the TGI (T-47D breast) was over 90.6 µM, the GI50 (MDA-MB-435) was over 100 µM and the TGI (MDA-MB-435) was over 100 µM. For the same compound, the GI50 (NCI-H522 lung) was 7.91 µM, the TGI (NCI-H522 lung) was 42.6 µM and the GI50 (MALME-3M melanoma) was 15.4 µM. It also gave a TGI (MALME-3M melanoma) of over 96 µM, a GI50 (PC-3 prostate) of 2.11 µM and a GI50 (MCF7 breast) of 8.54 µM. For the same compound, the TGI (MCF7 breast) was over 100 µM.

`Cc1ccc(/C=C(/C#N)n2nnc3ncccc32)cc1` was tested, and the GI50 (HOP-92 NSCLC) was 1.82 µM, the TGI (HOP-92 NSCLC) was 6.19 µM and the GI50 (NCI/ADR-RES ovarian) was 1.37 µM. It also gave a TGI (NCI/ADR-RES ovarian) of over 100 µM, a GI50 (DU-145 prostate) of 3.01 µM and a TGI (DU-145 prostate) of 13.7 µM. For the same compound, the GI50 (HS 578T breast) was 2.95 µM, the TGI (HS 578T breast) was over 100 µM and the GI50 (T-47D breast) was 1.92 µM. For the same compound, the TGI (T-47D breast) was 15.8 µM, the GI50 (MDA-MB-435) was 0.378 µM and the TGI (MDA-MB-435) was 13.4 µM. For the same compound, the GI50 (NCI-H522 lung) was 0.255 µM, the TGI (NCI-H522 lung) was 0.878 µM and the GI50 (MALME-3M melanoma) was 1.76 µM. The TGI (MALME-3M melanoma) was 26 µM, the GI50 (PC-3 prostate) was 4.18 µM and the TGI (PC-3 prostate) was 21.2 µM. It also gave a GI50 (MCF7 breast) of 2.37 µM and a TGI (MCF7 breast) of 18.1 µM.

Work on `CS(=O)(=O)c1ccc2c(c1)C(=O)c1c-2n(CCCBr)c(=O)c2cc([N+](=O)[O-])ccc12` yielded a GI50 (HOP-92 NSCLC) of 10.9 µM, a TGI (HOP-92 NSCLC) of 40 µM and a GI50 (NCI/ADR-RES ovarian) of 27.3 µM. It also gave a TGI (NCI/ADR-RES ovarian) of over 100 µM, a GI50 (DU-145 prostate) of 6.25 µM and a TGI (DU-145 prostate) of over 100 µM. For the same compound, the GI50 (HS 578T breast) was 4.98 µM, the TGI (HS 578T breast) was 44.1 µM and the GI50 (T-47D breast) was 4.88 µM. For the same compound, the TGI (T-47D breast) was over 100 µM, the GI50 (MDA-MB-435) was 82.6 µM and the TGI (MDA-MB-435) was over 100 µM. It also gave a GI50 (NCI-H522 lung) of 4.87 µM, a TGI (NCI-H522 lung) of over 100 µM and a GI50 (MALME-3M melanoma) of 69.6 µM. The TGI (MALME-3M melanoma) was over 100 µM, the GI50 (PC-3 prostate) was 9.94 µM and the TGI (PC-3 prostate) was over 100 µM. It also gave a GI50 (MCF7 breast) of 0.992 µM and a TGI (MCF7 breast) of over 100 µM.

`CC(C)(C)[Si](C)(C)OC1[C@@H](O[Si](C)(C)C(C)(C)C)[C@@H](CNC(=O)NC(=O)NC(=O)CCl)O[C@H]1n1cnc2c(NC(=O)Nc3ccccc3)ncnc21` (stereo not given in full) gave a GI50 (HOP-92 NSCLC) of 0.842 µM, a TGI (HOP-92 NSCLC) of 1.98 µM and a GI50 (NCI/ADR-RES ovarian) of 6.45 µM. The TGI (NCI/ADR-RES ovarian) was 15.9 µM, the GI50 (DU-145 prostate) was 7.88 µM and the TGI (DU-145 prostate) was 16.4 µM. The GI50 (HS 578T breast) was 4.52 µM, the TGI (HS 578T breast) was 20.6 µM and the GI50 (T-47D breast) was 8.59 µM. It also gave a TGI (T-47D breast) of 17.5 µM, a GI50 (MDA-MB-435) of 6.61 µM and a TGI (MDA-MB-435) of 17.6 µM. It also gave a GI50 (NCI-H522 lung) of 0.282 µM, a TGI (NCI-H522 lung) of 0.572 µM and a GI50 (MALME-3M melanoma) of 1.34 µM. For the same compound, the TGI (MALME-3M melanoma) was 3.64 µM, the GI50 (PC-3 prostate) was 1.1 µM and the TGI (PC-3 prostate) was 3.93 µM. For the same compound, the GI50 (MCF7 breast) was 3.76 µM and the TGI (MCF7 breast) was 11.9 µM.

Compound `Cc1ccc(S(=O)(=O)OCC(=O)Nc2ccc(C(=O)O)c(O)c2)cc1` has a GI50 (HOP-92 NSCLC) of 20 µM, a TGI (HOP-92 NSCLC) of 56.7 µM and a GI50 (NCI/ADR-RES ovarian) of 32.2 µM. For the same compound, the TGI (NCI/ADR-RES ovarian) was 162 µM, the GI50 (DU-145 prostate) was 26.8 µM and the TGI (DU-145 prostate) was 75.9 µM. It also gave a GI50 (HS 578T breast) of 20.3 µM, a TGI (HS 578T breast) of 61.8 µM and a GI50 (T-47D breast) of 43.2 µM. The TGI (T-47D breast) was 133 µM, the GI50 (MDA-MB-435) was 39.9 µM and the TGI (MDA-MB-435) was 169 µM. The GI50 (NCI-H522 lung) was 11.9 µM, the TGI (NCI-H522 lung) was 34.6 µM and the GI50 (MALME-3M melanoma) was 32.3 µM. It also gave a TGI (MALME-3M melanoma) of 115 µM, a GI50 (PC-3 prostate) of 30.4 µM and a TGI (PC-3 prostate) of 131 µM. The GI50 (MCF7 breast) was 23.9 µM and the TGI (MCF7 breast) was 121 µM.

Compound `CCCCCCCCCCCCNC(=O)N[C@H](C(=O)N[C@H]1/C=C/CCNC(=O)/C=C/[C@H](C)NC1=O)C(C)C` has a GI50 (HOP-92 NSCLC) of 0.123 µM, a TGI (HOP-92 NSCLC) of 0.353 µM and a GI50 (NCI/ADR-RES ovarian) of over 100 µM. For the same compound, the TGI (NCI/ADR-RES ovarian) was over 100 µM, the GI50 (DU-145 prostate) was 0.108 µM and the TGI (DU-145 prostate) was 3.78 µM. The GI50 (HS 578T breast) was 0.333 µM, the TGI (HS 578T breast) was 24 µM and the GI50 (T-47D breast) was 0.144 µM. The TGI (T-47D breast) was 0.36 µM, the GI50 (MDA-MB-435) was 0.0316 µM and the TGI (MDA-MB-435) was 0.286 µM. For the same compound, the GI50 (NCI-H522 lung) was 0.0244 µM, the TGI (NCI-H522 lung) was 0.0647 µM and the GI50 (MALME-3M melanoma) was 0.422 µM. The TGI (MALME-3M melanoma) was 2.99 µM, the GI50 (PC-3 prostate) was 0.0154 µM and the TGI (PC-3 prostate) was 0.0665 µM. For the same compound, the GI50 (MCF7 breast) was 0.0577 µM and the TGI (MCF7 breast) was 15.6 µM.

`CON=C1C[C@]2(C[C@@H]3C[C@@H](C/C=C(\C)C[C@@H](C)/C=C/C=C4\CO[C@@H]5[C@H](O)C(C)=C[C@@H](C(=O)O3)[C@]45O)O2)O[C@H](/C(C)=C/C(C)C)[C@H]1C` was tested, and the GI50 (HOP-92 NSCLC) was 1.99 µM, the TGI (HOP-92 NSCLC) was 11.8 µM and the GI50 (NCI/ADR-RES ovarian) was 14.4 µM. The TGI (NCI/ADR-RES ovarian) was 29 µM, the GI50 (DU-145 prostate) was 7.55 µM and the TGI (DU-145 prostate) was 20.1 µM. For the same compound, the GI50 (HS 578T breast) was 16.6 µM, the TGI (HS 578T breast) was 39.6 µM and the GI50 (T-47D breast) was 8.9 µM. It also gave a TGI (T-47D breast) of 22.2 µM, a GI50 (MDA-MB-435) of 7.98 µM and a TGI (MDA-MB-435) of 21.5 µM. The GI50 (NCI-H522 lung) was 12 µM, the TGI (NCI-H522 lung) was 26.1 µM and the GI50 (MALME-3M melanoma) was 17.1 µM. For the same compound, the TGI (MALME-3M melanoma) was 34.4 µM, the GI50 (PC-3 prostate) was 2.63 µM and the TGI (PC-3 prostate) was 11.2 µM. For the same compound, the GI50 (MCF7 breast) was 15.9 µM and the TGI (MCF7 breast) was 30 µM.

`O=C(O)c1ccc(NCc2nc3ccccc3[nH]2)cc1` showed a GI50 (HOP-92 NSCLC) of over 100 µM, a TGI (HOP-92 NSCLC) of over 100 µM and a GI50 (NCI/ADR-RES ovarian) of over 100 µM. The TGI (NCI/ADR-RES ovarian) was over 100 µM, the GI50 (DU-145 prostate) was over 100 µM and the TGI (DU-145 prostate) was over 100 µM. The GI50 (HS 578T breast) was over 100 µM, the TGI (HS 578T breast) was over 100 µM and the GI50 (T-47D breast) was over 100 µM. For the same compound, the TGI (T-47D breast) was over 100 µM, the GI50 (MDA-MB-435) was over 100 µM and the TGI (MDA-MB-435) was over 100 µM. It also gave a GI50 (NCI-H522 lung) of over 100 µM, a TGI (NCI-H522 lung) of over 100 µM and a GI50 (MALME-3M melanoma) of 1.25 µM. For the same compound, the TGI (MALME-3M melanoma) was 7.52 µM, the GI50 (PC-3 prostate) was over 100 µM and the TGI (PC-3 prostate) was over 100 µM. For the same compound, the GI50 (MCF7 breast) was 99.9 µM and the TGI (MCF7 breast) was over 100 µM.

With `C=C[C@H]1CN2CCc3c([nH]c4c([C@@H]5CCCN5C)c(O)ccc34)[C@@H]2C[C@@H]1C[C@H]1c2[nH]c3ccccc3c2CCN1C` the TGI (HOP-92 NSCLC) was 2.76 µM and 2.91 µM, the TGI (NCI/ADR-RES ovarian) was 3.34 µM and 3.52 µM and the TGI (DU-145 prostate) was 2.88 µM and 3.16 µM. For the same compound, the TGI (HS 578T breast) was 3.04 µM and 3.39 µM, the TGI (T-47D breast) was 3.26 µM and 3.91 µM and the GI50 (MDA-MB-435) was 1.71 µM. For the same compound, the TGI (MDA-MB-435) was 2.99 µM and 2.95 µM and 3.15 µM, the TGI (NCI-H522 lung) was 3.66 µM and the TGI (MALME-3M melanoma) was 3.41 µM. For the same compound, the TGI (PC-3 prostate) was 3.05 µM and 2.88 µM and the TGI (MCF7 breast) was 3.66 µM and 4.3 µM.
